Laboratory results as given in US8129121B2, “Regulation of lipid droplet formation by modulation of FIT1 and FIT2 and uses thereof” (Albert Einstein College of Medicine of Yeshiva University, priority 2007, dated 2012).

How the values were obtained:
NIH-3T3 L1 adipocytes = test: Lentivirus shRNA knockdown of FIT2 in NIH-3T3 L1 cells during adipogenesis: lipid droplets, differentiation markers, TG biosynthesis, lipolysis; assay type: cell-based, mouse
Description: (§1) FIG. 4A-4C. shRNAi mediated knockdown of FIT2. NIH-3T3 or RAW246.7 cells were infected with lentivirus expressing shRNA sequence targeting murine FIT2 (FIT2shRNA), or control shRNA (contshRNA), or no lentivirus (control). (A) FIT2shRNA reduced lipid droplet formation during NIH-3T3 cell differentiation (days of differentiation are shown above image) as visualized by BODIPY493/503 staining. […] Expression of differentiation markers Apt and PPARgamma, were not changed in FIT2shRNA treated cells compared to controls.
FIG. 11A-11B. Triglyceride biosynthesis and lipolysis assays in FIT2 knockdown cells. (A) Triglyceride synthesis measurements were performed at each time point during differentiation using ^14C glycerol and TLC analysis of triglyceride levels quantified by PhosphorImager analysis. Each time point contained 3 independent samples for each condition, and represented as mean±std, p<0.001. […] (B) Lipolysis assays performed on cell lysates from NIH 3T3-L1 cells at day 4 and day 6 of differentiation. No differences were observed between control and shRNAcont and FIT2shRNA adipocytes.
Cell culture. HEK293, and HeLa cells were grown in DMEM 10% FBS. NIH-3T3 L1 adipocytes were a kind gift from Philip Scherer and grow and differentiated by standard methods (24).
Triglyceride biosynthesis and DGAT assays. Cells in culture were incubated with 7.5 μCi/mL of 14C-glycerol (Specific activity: 125-180 mCi/mmol, NEN-Amersham) for the indicated times, followed by extraction with HIP and separation by TLC as referenced above. Radioactive triglycerides were quantified using PhosphorImager analysis and represented as a rate of triglyceride production using arbitrary units obtained from PhosphorImager analysis.
Lipase activity assay. Total cellular lipase activity was measured using the established method of Holm and Osterlund in Methods in Molecular Biology 1999; 109, p 109-121.
(§2) Double stranded shRNA DNAs were used to generate lentiviruses using the U6 promoter driven BLOCK-iT Lentivirus RNAi expression system (Invitrogen Corporation). Knockdown of human FIT2 in HEK293 cells was performed by stably transfection using pEntryU6 vector (Invitrogen Corp). NIH-3T3 L1 pre-adipocytes and HepG2 cells were infected with an MOI of 10-50.
(§3) shRNA suppression of FIT2 abolishes lipid droplet formation during adipogenesis. To provide a direct test if FIT proteins are essential for the formation of lipid droplets, knockdown of FIT expression was sought in established cellular models of lipid droplet formation. […]

FIT2 = test: Lentivirus shRNA knockdown of FIT2 in NIH-3T3 L1 cells, FIT2 mRNA and protein; assay type: cell-based, mouse; conditions: adipocytes infected with lentivirus, vs control shRNA or no virus
Description: as §1
Lentivirus shRNA. The following short hairpin RNA (shRNA) sequences (sense strand shown) were used to knockdown mouse FIT2 expression: shRNAcont, […] (SEQ ID NO:20); shRNAFIT2, (SEQ ID NO:21) […].
as §2, §3

## FIT2 shRNA: lentivirus-expressed short hairpin RNA targeting murine FIT2, SEQ ID NO:21 (CACCGCACCATGTTTGGTTTGTTGGCGAACCAACAAACCAAACATGGTGC)
NIH-3T3 L1 adipocytes; 14C glycerol, TLC, knockdown adipocytes compared to controls
  Triglyceride biosynthesis: similar
NIH-3T3 L1 adipocytes; BODIPY493/503 staining, pre-adipocytes (day 0) and mature adipocytes (day 4 to 9)
  lipid droplets: almost complete absence of lipid droplets
NIH-3T3 L1 adipocytes; FIT2 suppressed cells, Northern blot
  expression of PPARgamma and AP2 (markers of adipocyte differentiation): not changed
NIH-3T3 L1 adipocytes; cell lysates at day 4 and day 6 of differentiation, compared to controls
  triglyceride lipase activities: similar
FIT2; Northern blot
  FIT2 mRNA: significantly suppressed
FIT2; Western blot
  FIT2 protein: significantly suppressed
